The text below walks through data of ChEMBL document CHEMBL1148132, “Abietane diterpenoids from Coleus xanthanthus” (J Nat Prod, 2002).

In the experiment the test system is K562. Briefly: Cytotoxicity against human K562 cells after 48 hrs by MTT assay. It is filed as functional, cell-based. The note with it: K562, 48 h. On the technique in general: Tetrazolium dyes change colour on reduction, which living cells bring about.

SMILES strings stand for the structures. Converted amounts (≈) assume the structure as drawn.

Turning to `CC(C)C1=C(O)C(=O)C2=C(C(=O)C(O)=C3C(C)(C)CCC[C@]23C)C1=O`, the IC50 is 3 µg/mL (≈ 8.71 µM). Then `O=C1c2c(O)ccc(O)c2C(=O)c2c(NCCNCCO)ccc(NCCNCCO)c21` [MITOXANTRONE], with 2 µg/mL (≈ 4.5 µM). Compound `CC(C)C1=C(O)C(=O)C([C@@]2(C)CCCC(C)(C)C2=O)=C(C(=O)O)C1=O` [XANTHANTHUSIN E] came in with a concentration for half-maximal inhibition (IC50) of 34.3 µg/mL (≈ 98.5 µM).

`CC(C)C1=C(O)C(=O)[C@@]23O[C@@]2(C(=O)C(O)=C2C(C)(C)CCC[C@@]23C)C1=O`: the IC50 was found to be 13.9 µg/mL (≈ 38.6 µM). In the case of `CC(=O)Oc1c(O)c(C(C)C)c(O)c2c1[C@@]1(C)CCCC(C)(C)C1=C(O)C2=O`, the IC50 was determined as 2.2 µg/mL (≈ 5.66 µM). Regarding `CC(=O)OCC(C)C1=C(OC(C)=O)C(=O)C2=C(C(=O)C(O)=C3C(C)(C)CCC[C@]23C)C1=O` (stereo partly specified) [XANTHANTHUSIN H], the concentration for half-maximal inhibition (IC50) was found to be 12.9 µg/mL (≈ 29 µM).

A word on the IC50: it is the point on the concentration scale where inhibition reaches its midpoint. Higher therefore signals weaker potency in that assay.
